# Laboratory results as given in patent publication US20070280929A1, “ADJUVANT IN THE FORM OF A LIPID-MODIFIED NUCLEIC ACID” (priority 2006, published 2007).
# What was measured:
# breast cancer cell lines = conditions: various breast cancer cell lines; cited from earlier work
# human PBMC cells = assay: TNF-α release by human PBMC cells after 16 h co-incubation, supernatants analysed by ELISA; assay type: cell-based; conditions: FIG. 6, 10 μg/ml RNA oligonucleotides
# Description: In order to determine the immunogenic activity of adjuvants according to the invention, such adjuvants in the form of a lipid-modified nucleic acid containing a sequence according to SEQ ID NO: 40, 41 or 42 were co-incubated with human cells. To this end, human PBMC cells, for example, containing RNA were co-incubated for 16 hours in X-vivo15 medium (BioWhittaker), enriched with 2 mM L-glutamine (BioWhittaker), 10 U/ml penicillin (BioWhittaker) and 10 μg/ml streptomycin, with 10 μg/ml of RNA (mRNA coding for β-galactosidase or phosphorothioate RNA oligonucleotide 40 5′ […] (SEQ ID NO: 40)) and optionally with 10 μg/ml protamine. The supernatants were removed and analysed by means of ELISA. […] When determining the TNFα release, a marked stimulation of the immune system can be detected, which is at least equal to that of β-galactosidase or RNA (see FIG. 5B).
# In a further experiment, the release of TNF-α by human PBMC cells was determined after stimulation with RNA oligonucleotides used according to the invention and also adjuvants according to the invention.
# To that end, human PBMC cells were co-incubated for 16 hours with 10 μg/ml of RNA oligonucleotides in X-vivo15 medium (BioWhittaker), enriched with 2 mM L-glutamine (BioWhittaker), 10 U/ml penicillin (BioWhittaker) and 10 μg/ml streptomycin. […] The supernatants were removed and analysed by means of ELISA. […]
Compound,apoptosis (breast cancer cell lines),increase in immune stimulation (TNF-α release) as compared with the unmodified RNA oligonucleotide (human PBMC cells)
"Cc1c(C)c2c(c(C)c1OC(=O)CCC(=O)O)CC[C@@](C)(CCC[C@H](C)CCC[C@H](C)CCCC(C)C)O2 [VES, vitamin E succinate]",induce apoptosis,
"RNA oligo Toc CV2: tocopherol-modified sequence according to SEQ ID NO: 42 (5′-AAUGGAUAUGGAAUAUGGAA-3′, RNA CV2) (RNA, backbone not given here; tocopherol lipid conjugated)",,more than 10 fold
